Experimental data: ChEMBL document CHEMBL4177593, “Recently reported biological activities of pyrazole compounds” (Bioorg Med Chem, 2017)
Values after ≈ are worked out from the molar mass of the structure shown.

Legend:
Rattus norvegicus [1] = assay: Anti inflammatory activity in Wistar rat assessed as carrageenan-induced paw edema at 10 mg/kg, po pretreated for 15 mins followed by carrageenan addition measured after 90 mins (reference value: 38.7%); assay type: functional
Streptococcus pyogenes = assay: Antibacterial activity against Streptococcus pyogenes MTCC 442; assay type: functional
Bacillus subtilis = assay: Antibacterial activity against Bacillus subtilis MTCC 441 by broth microdilution method; assay type: functional, organism-based
Escherichia coli [2] = assay: Antibacterial activity against Escherichia coli MTCC 443; assay type: functional
Staphylococcus aureus [3] = assay: Antibacterial activity against Staphylococcus aureus MTCC 96; assay type: functional
MCF7 [4] = assay: Antiproliferative activity against human MCF7 cells after 48 hrs by SRB assay; assay type: functional, cell-based; conditions: MCF7, 48 h
HeLa = assay: Antiproliferative activity against human HeLa cells after 48 hrs by SRB assay; assay type: functional, cell-based
A549 = assay: Antiproliferative activity against human A549 cells after 48 hrs by SRB assay; assay type: functional, cell-based; conditions: A549, 48 h
IMR-32 = assay: Antiproliferative activity against human IMR32 cells after 48 hrs by SRB assay; assay type: functional, cell-based; conditions: IMR-32, 48 h
Leishmania amazonensis [5] = assay: Antileishmanial activity against Leishmania amazonensis amastigotes assessed as reduction in […] lode in early log phase after 24 hrs; assay type: functional, organism-based
Leishmania amazonensis [6] = assay: Antileishmanial activity against Leishmania amazonensis amastigotes assessed as reduction in […] lode in late log phase after 24 hrs; assay type: functional, organism-based
Leishmania amazonensis [7] = assay: Antileishmanial activity against Leishmania amazonensis axenic amastigotes after 24 hrs; assay type: functional, organism-based
SGC-7901 = assay: Antiproliferative activity against human SGC7901 cells after 48 hrs by MTT assay; assay type: functional, cell-based; conditions: SGC-7901, 48 h
SMMC-7721 = assay: Antiproliferative activity against human SMMC7721 cells after 48 hrs by MTT assay; assay type: functional, cell-based; conditions: SMMC-7721, 48 h
[8] = Selectivity index, ratio of IC50 for rat seminal vesicles COX1 to IC50 for recombinant human COX2
Pseudomonas aeruginosa = assay: Antibacterial activity against Pseudomonas aeruginosa MTCC 1688; assay type: functional
MCF7 [9] = assay: Antiproliferative activity against human MCF7 cells; assay type: functional, cell-based
Rattus norvegicus [10] = assay: Anti inflammatory activity in rat assessed as inhibition of carrageenan-induced hind paw edema at 50 mg/kg measured after 1 to 4 hrs by plethysmographic method relative to control; assay type: functional
[11] = system: Mycobacterium tuberculosis; assay: Antitubercular activity against Mycobacterium tuberculosis H37Rv at 100 ug/ml by broth microdilution method relative to control; assay type: functional
Fusarium oxysporum = assay: Antifungal activity against Fusarium oxysporum f. sp. albedinis; assay type: functional, organism-based
MCF7 [12] = assay: Antiproliferative activity against human MCF7 cells after 48 hrs by MTT assay; assay type: functional, cell-based; conditions: MCF7, 48 h
Leishmania infantum = assay: Antileishmanial activity against Leishmania infantum MCAN/BR/97/P142 promastigotes after 24 hrs; assay type: functional, organism-based; conditions: MCAN/BR/97/P142, 24 h
Leishmania amazonensis [13] = assay: Antileishmanial activity against Leishmania amazonensis MHOM/BR/77/LTB0016 promastigotes after 24 hrs; assay type: functional, organism-based; conditions: MHOM/BR/77/LTB0016, 24 h
B16-F10 = assay: Antiproliferative activity against mouse B16F10 cells after 48 hrs by MTT assay; assay type: functional, cell-based; conditions: B16-F10, 48 h
Leishmania amazonensis [14] = assay: Antileishmanial activity against Leishmania amazonensis amastigotes after 24 hrs by MTT assay; assay type: functional, organism-based
Escherichia coli [15] = assay: Antibacterial activity against Escherichia coli MTCC 443 by broth microdilution method; assay type: functional
Rattus norvegicus [16] = assay: Ulcerogenic activity in albino rat assessed as ulcer index at 20 mg/kg, po administered daily for 3 successive days in two equal doses at 0 and 12 hrs measured at 6 hrs post last dose by magnifying lens based assay; assay type: toxicity, organism-based; conditions: in vivo
Yarrowia lipolytica = assay: Antifungal activity against Candida lipolytica after 48 hrs; assay type: functional
Candida albicans = assay: Antifungal activity against Candida albicans after 48 hrs; assay type: functional
K562 = assay: Growth inhibition in human K562 cells at 10^-5 mol/L relative to control; assay type: functional; conditions: read-out: GI
Rattus norvegicus [17] = assay: Anti inflammatory activity in Wistar rat assessed as inhibition of carrageenan-induced paw edema at 5 mg/kg, po pretreated for 30 mins followed by carrageenan addition measured up to 4 hrs relative to control; assay type: functional
Ovis aries = species: Ovis aries; assay: Selectivity index, ratio of IC50 for ovine COX1 to IC50 for ovine COX2
Staphylococcus aureus [18] = assay: Antibacterial activity against Staphylococcus aureus; assay type: functional

Work on `CS(=O)(=O)Nc1ccc([N+](=O)[O-])cc1Oc1ccccc1` [NIMESULIDE] yielded an Activity (Rattus norvegicus [1]) of 23.4%.

`CC1(C)S[C@@H]2[C@H](NC(=O)[C@H](N)c3ccccc3)C(=O)N2[C@H]1C(=O)O` [AMPICILLIN] showed an Activity (Streptococcus pyogenes) of 200 µg/mL, an IC50 (Bacillus subtilis) of 250 µg/mL (≈ 715 µM) and an MIC (Bacillus subtilis) of 250 µg/mL (≈ 715 µM). It also gave an Activity (Escherichia coli [2]) of 100 µg/mL and an Activity (Staphylococcus aureus [3]) of 200 µg/mL.

For `COc1cc(/C=C/c2nnc(-c3cc(-c4ccc(Cl)cc4)n[nH]3)o2)cc(OC)c1OC`, the IC50 (MCF7 [4]) was 1800 nM, the IC50 (HeLa) was 2300 nM and the IC50 (A549) was 1500 nM. For the same molecule, the IC50 (IMR-32) was 3200 nM.

For `Cc1cccc(NS(=O)(=O)c2ccccc2)c1-c1ccn(S(=O)(=O)c2ccccc2)n1`, the IC50 (Leishmania amazonensis [5]) was 6700 nM, the IC50 (Leishmania amazonensis [6]) was 41300 nM and the IC50 (Leishmania amazonensis [7]) was 56000 nM.

With `O=c1[nH]cc(F)c(=O)[nH]1` [FLUOROURACIL] the IC50 (SGC-7901) was 16 µg/mL (≈ 123 µM) and the IC50 (SMMC-7721) was 19.2 µg/mL (≈ 148 µM).

`Cc1ccc(/N=C/c2ccc(OCCOc3cc(C)nn3-c3ccccc3)cc2)cc1` showed an Activity (Rattus norvegicus [1]) of 19.4% and a Ratio IC50 [8] of 0.44.

In the case of `O=c1[nH]/c(=C\c2nc3cc(Cl)ccc3s2)s/c1=C\c1cn(-c2ccccc2)nc1-c1ccc(Cl)cc1`, the Activity (Escherichia coli [2]) is reported as 100 µg/mL and the Activity (Pseudomonas aeruginosa) is reported as 200 µg/mL.

`CCCCCCCCCCn1nc(-c2cc(Br)ccc2Cl)c(C(N)=O)c1N` showed an IC50 (MCF7 [9]) of 2500 nM.

`CC(=O)NC1=NN(C(C)=O)C(c2cn(-c3ccccc3)nc2-c2ccc(O)cc2)S1` (stereo not drawn) showed an inhibition in vivo at 50 mg/kg (Rattus norvegicus [10]) greater than 84.2%.

Work on `CO[C@H]1/C=C/O[C@@]2(C)Oc3c(C)c(O)c4c(O)c(c(/C=N/N5CCN(C)CC5)c(O)c4c3C2=O)NC(=O)/C(C)=C\C=C\[C@H](C)[C@H](O)[C@@H](C)[C@@H](O)[C@@H](C)[C@H](OC(C)=O)[C@@H]1C` [RIFAMPIN] yielded an inhibition at 100 µg/mL [11] of 98%.

With `C/C(O)=C/C(=O)c1cc(C)n(C)n1` the IC50 (Fusarium oxysporum) was 55 nM and the MIC (Fusarium oxysporum) was 0.055 µM (≈ 9.91 ng/mL).

Work on `COc1ccc(/C=C/C(=O)OCc2cn(-c3ccccc3)nc2-c2ccc(OC)cc2)cc1` yielded an IC50 (MCF7 [12]) of 300 nM.

`N=C(N)c1ccc(OCCCCCOc2ccc(C(=N)N)cc2)cc1` [PENTAMIDINE] showed an IC50 (Leishmania infantum) of 62000 nM and an IC50 (Leishmania amazonensis [13]) of 21000 nM.

With `C#Cc1cccc(Nc2ncnc3cc(OCCOC)c(OCCOC)cc23)c1` [ERLOTINIB] the IC50 (MCF7 [12]) was 80 nM and the IC50 (B16-F10) was 120 nM.

In the case of `COC(=O)Nc1nc2cc(C(=O)c3cccs3)ccc2[nH]1` [NOCODAZOLE], the IC50 (MCF7 [4]) is reported as 1250 nM, the IC50 (HeLa) is reported as 1200 nM and the IC50 (A549) is reported as 900 nM. The IC50 (IMR-32) was 1300 nM.

Work on `COc1ccc(-n2ncc(-c3nnn[nH]3)c2N)cc1` yielded an IC50 (Leishmania amazonensis [14]) of 22300 nM.

For `Cc1n[nH]c(O)c1C(NNC(N)=O)c1ccc(O)cc1` (stereo not drawn), the MIC (Escherichia coli [15]; Escherichia coli, MTCC 443) was 0.25 µg/mL (≈ 0.902 µM).

`O=c1[nH]/c(=C\c2nc3cc(Cl)ccc3s2)s/c1=C\c1cn(-c2ccccc2)nc1-c1ccc(Br)cc1` gave an Activity (Streptococcus pyogenes) of 100 µg/mL, an Activity (Pseudomonas aeruginosa) of 200 µg/mL and an Activity (Staphylococcus aureus [3]) of 100 µg/mL.

In the case of `COc1ccc2c(c1)c(CC(=O)O)c(C)n2C(=O)c1ccc(Cl)cc1` [INDOMETHACIN], the UI (Rattus norvegicus [16]) is reported as 12.82.

In the case of `CCn1cc(C(=O)O)c(=O)c2cc(F)c(N3CCNCC3)cc21` [NORFLOXACIN], the IC50 (Bacillus subtilis) is reported as 100 µg/mL (≈ 313 µM) and the MIC (Bacillus subtilis) is reported as 100 µg/mL (≈ 313 µM).

With `COc1ccccc1C1CC(c2ccccc2)=NN1C(=N)N` (stereo not drawn) the MIC (Yarrowia lipolytica) was 15.6 to 62.5 µg/mL (≈ 53 to 212 µM) and the MIC (Candida albicans) was 15.6 to 62.5 µg/mL (≈ 53 to 212 µM).

Work on `Cc1cc(C)n(C(=O)c2cc(-c3ccc(F)cc3F)ccc2O)n1` yielded an inhibition of growth at 10 µM (K562) of 70%.

Work on `CC(=O)N1CCN(c2ccc(OCC3COC(Cn4ccnc4)(c4ccc(Cl)cc4Cl)O3)cc2)CC1` (stereo not drawn) [KETOCONAZOLE] yielded an IC50 (Leishmania amazonensis [5]) of 12500 nM, an IC50 (Leishmania amazonensis [6]) of 29800 nM and an IC50 (Leishmania amazonensis [7]) of 164000 nM.

For `Cc1ccc(-c2cc(C(F)(F)F)nn2-c2ccc(S(N)(=O)=O)cc2)cc1`, the Ratio IC50 [8] was 0.0028.

With `Clc1ccc(-c2cc(-c3nnc(/C=C/c4ccc5c(c4)OCO5)o3)[nH]n2)cc1Cl` the IC50 (MCF7 [4]) was 3900 nM, the IC50 (HeLa) was 2800 nM and the IC50 (A549) was 2300 nM. For the same molecule, the IC50 (IMR-32) was 4100 nM.

`CC(=O)NC1=NN(C(C)=O)C(c2cn(-c3ccccc3)nc2-c2ccc([N+](=O)[O-])cc2)S1` (stereo not drawn) showed an inhibition in vivo at 50 mg/kg (Rattus norvegicus [10]) greater than 84.2%.

In the case of `COc1ccc(-c2cc(-c3ccccc3)nn2CC(=O)Nc2ccc(S(N)(=O)=O)cc2)cc1`, the UI (Rattus norvegicus [16]) is reported as 2.79, the inhibition in vivo at 5 mg/kg (Rattus norvegicus [17]) is reported as 81% and the Ratio IC50 (Ovis aries) is reported as 11.1.

With `O=C(O)Cc1ccccc1Nc1c(Cl)cccc1Cl` [DICLOFENAC] the inhibition in vivo at 50 mg/kg (Rattus norvegicus [10]) was 86.7%.

In the case of `Cc1nn(-c2ccc(S(=O)(=O)Nc3ccccc3)cc2)c(Cl)c1Br`, the IC50 (Leishmania infantum) is reported as 59000 nM and the IC50 (Leishmania amazonensis [13]) is reported as 70000 nM.

Work on `CN[C@@H]1[C@H](O[C@H]2[C@H](O[C@H]3[C@H](O)[C@@H](O)[C@H](N=C(N)N)[C@@H](O)[C@@H]3N=C(N)N)O[C@@H](C)[C@]2(O)C=O)O[C@@H](CO)[C@H](O)[C@H]1O` [STREPTOMYCIN] yielded an Activity (Staphylococcus aureus [18]) of 500 µg/mL and an Activity (Escherichia coli [15]) of 500 µg/mL.

Work on `Cc1cc(OCCOc2ccc(/C=N/c3ccccc3)cc2)n(-c2ccccc2)n1` yielded an Activity (Rattus norvegicus [1]) of 13.4% and a Ratio IC50 [8] of 0.51.
